This is an account of results in patent US8580829B2 (Boehringer Ingelheim International GmbH, priority 2010, dated 2013).

SMILES strings stand for the structures.

Experiment [1] addresses T1, recombinant human FLAP protein (Homo sapiens, UniProt P20292).
T1 construct: made in house; host or cells: Sf9 insect cells (100,000 x g membrane fraction)
T1 sequence (P20292 1-161): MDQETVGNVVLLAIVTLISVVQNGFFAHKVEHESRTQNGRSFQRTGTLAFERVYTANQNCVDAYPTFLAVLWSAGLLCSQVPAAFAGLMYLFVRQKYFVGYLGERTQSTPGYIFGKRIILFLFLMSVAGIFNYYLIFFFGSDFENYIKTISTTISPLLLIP
The experiment in a line: FLAP binding assay (Scintillation Proximity Assay, displacement of [125I]L-691,831). The conditions noted are these: recombinant human FLAP membranes, [125I]L-691,831 probe; read-out: FLAP SPA IC50. The method, boiled down: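 WGA scintillation proximity beads were stirred 1 h with 5 μg of FLAP-containing membrane protein. The membranes came from baculovirus Sf9 cells, Dounce-lysed and spun to a 100,000×g pellet in buffer at pH 7.5.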

Experiment [2] concerns synthesis of LTB4 in human whole blood. The experiment in a line: human whole blood LTB4 production inhibition assay. The experiment is classed as cell-based. The conditions noted are these: Homo sapiens, heparinized human whole blood, calcimycin 20 μM; read-out: hWB LTB4 IC50. The method, boiled down:
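LTB4 in plasma was quantified by HTRF immunoassay. Before that, compound-treated heparinized whole blood (15 min, 37 °C) received 20 μM final calcimycin for a further 30 min at 37 °C, followed by centrifugation at 1500×g.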

The term IC50 denotes the concentration that inhibits the measured activity by half.

On to `Nc1cc(-c2nc(C3(c4ccc(-c5cnc(N)nc5)cc4)CCC3)no2)ccn1` [Example 37, 5-(4-{1-[5-(2-Amino-pyridin-4-yl)-1,2,4-oxadiazol-3-yl]-cyclobutyl}-phenyl)-pyrimidin-2-ylamine], for which the values for the concentration for half-maximal inhibition (IC50) in experiment [1] and in experiment [2] were 3.7 nM and 340 nM, respectively.
The matching figures for `CC(O)Cn1cc(-c2nc(C3(c4ccc(-c5cnc(N)nc5)cc4)CCC3)no2)cn1` (stereo not drawn) [Example 83, 1-[4-(3-{1-[4-(2-Amino-pyrimidin-5-yl)-phenyl]-cyclobutyl}-1,2,4-oxadiazol-5-yl)-pyrazol-1-yl]-propan-2-ol]: 4 nM and 110 nM.
The corresponding values for `CN1CCN(C(=O)Cn2cc(-c3nc(C4(c5ccc(-c6cnc(N)nc6)cc5)CCC4)no3)cn2)CC1` [Example 219, 2-[4-(3-{1-[4-(2-Amino-pyrimidin-5-yl)-phenyl]-cyclobutyl}-[1,2,4]oxadiazol-5-yl)-pyrazol-1-yl]-1-(4-methyl-piperazin-1-yl)-ethanone] are 3.1 nM and 140 nM.
The corresponding values for `Nc1ncc(-c2ccc(C3(c4noc(-c5cccnc5Cl)n4)CCC3)cc2)cn1` [Example 169, 5-(4-{1-[5-(2-Chloro-pyridin-3-yl)-1,2,4-oxadiazol-3-yl]-cyclobutyl}-phenyl)-pyrimidin-2-ylamine] are 2.1 nM and 130 nM.
For the molecule `COc1cc(-c2nc(C3(c4ccc(-c5cnc(N)nc5)cc4)CCC3)no2)ccc1O` [Example 98, 4-(3-{1-[4-(2-Amino-pyrimidin-5-yl)-phenyl]-cyclobutyl}-1,2,4-oxadiazol-5-yl)-2-methoxy-phenol], the IC50 in experiment [1] is 2.3 nM; in experiment [2] it was 110 nM.
As for `COc1ccncc1-c1nc(C2(c3ccc(-c4cnc(N)nc4)cc3)CCC2)no1` [Example 168, 5-(4-{1-[5-(4-Methoxy-pyridin-3-yl)-1,2,4-oxadiazol-3-yl]-cyclobutyl}-phenyl)-pyrimidin-2-ylamine], the IC50 in experiment [1] came to 5.5 nM; in experiment [2] it was 230 nM.
On to `Cn1ncc(-c2nc(C3(c4ccc(-c5cnc(N)nc5)cc4)CCC3)no2)c1N` [Example 7, 5-(4-{1-[5-(5-Amino-1-methyl-1H-pyrazol-4-yl)-1,2,4-oxadiazol-3-yl]-cyclobutyl}-phenyl)-pyrimidin-2-ylamine], for which the half-inhibitory concentration (IC50) came out at 2.4 nM in experiment [1] and 50 nM in experiment [2].
For `Nc1ncc(-c2ccc(C3(c4noc(-c5cnc(Cl)cn5)n4)CCC3)cc2)cn1` [Example 187, 5-(4-{1-[5-(5-chloro-pyrazin-2-yl)-1,2,4-oxadiazol-3-yl]-cyclobutyl}-phenyl)-pyrimidin-2-ylamine], the values for the IC50 in experiment [1] and in experiment [2] were 8.4 nM and 3400 nM, respectively.
The corresponding values for `Cn1cc(-c2nc(C3(c4ccc(-c5cnc(N)nc5)cc4)CCC3)no2)ccc1=O` [Example 3, 5-(3-{1-[4-(2-Amino-pyrimidin-5-yl)-phenyl]-cyclobutyl}-1,2,4-oxadiazol-5-yl)-1-methyl-1H-pyridin-2-one] are 5.6 nM and 350 nM.
In the case of `Cn1cc(-c2nc(C3(c4ccc(-c5cnc6c(c5)CCN6)cc4)CCC3)no2)cn1` [Example 272, 5-(4-{1-[5-(1-Methyl-1H-pyrazol-4-yl)-[1,2,4]oxadiazol-3-yl]-cyclobutyl}-phenyl)-2,3-dihydro-1H-pyrrolo[2,3-b]pyridine], the IC50 in experiment [1] is 3.8 nM; in experiment [2], 79 nM.
The corresponding values for `Cn1ccc(-c2nc(C3(c4ccc(-c5cnc(N)nc5)cc4)CCC3)no2)n1` [Example 92, 5-(4-{1-[5-(1-Methyl-1I-pyrazol-3-yl)-1,2,4-oxadiazol-3-yl]-cyclobutyl}-phenyl)-pyrimidin-2-ylamine] are 4.9 nM and 150 nM.
The corresponding values for `CC(CO)n1cc(-c2nc(C3(c4ccc(-c5cnc(N)nc5)cc4)CCC3)no2)cn1` (stereo not drawn) [Example 82, 2-[4-(3-{1-[4-(2-Amino-pyrimidin-5-yl)-phenyl]-cyclobutyl}-1,2,4-oxadiazol-5-yl)-pyrazol-1-yl]-propan-1-ol] are 3.1 nM and 99 nM.
The corresponding values for `Nc1ncc(-c2ccc(C3(c4noc(-c5cnc(NCCO)cn5)n4)CCC3)cc2)cn1` [Example 68, 2-[5-(3-{1-[4-(2-Amino-pyrimidin-5-yl)-phenyl]-cyclobutyl}-1,2,4-oxadiazol-5-yl)-pyrazin-2-ylamino]-ethanol] are 1.1 nM and 130 nM.
Regarding `COC(=O)c1ccc(-c2nc(C3(c4ccc(-c5cnc(N)nc5)cc4)CCC3)no2)cn1` [Example 170, 5-(3-{1-[4-(2-Amino-pyrimidin-5-yl)-phenyl]-cyclobutyl}-1,2,4-oxadiazol-5-yl)-pyridine-2-carboxylic acid methyl ester], the IC50 in experiment [1] was 2.9 nM; in experiment [2], 390 nM.
The matching figures for `Cc1cc(-c2nc(C3(c4ccc(-c5cnc(N)nc5)cc4)CCOCC3)no2)n(C)n1` [Example 148, 5-(4-{4-[5-(2,5-Dimethyl-2H-pyrazol-3-yl)-1,2,4-oxadiazol-3-yl]-tetrahydro-pyran-4-yl}-phenyl)-pyrimidin-2-ylamine]: 46 nM and 3300 nM.
The corresponding values for `Nc1ncc(-c2ccc(C3(c4noc(-c5cnn(CC(=O)NCC6CCCO6)c5)n4)CCC3)cc2)cn1` (stereo not drawn) [Example 224, 2-[4-(3-{1-[4-(2-Amino-pyrimidin-5-yl)-phenyl]-cyclobutyl}-[1,2,4]oxadiazol-5-yl)-pyrazol-1-yl]-N-(tetrahydro-furan-2-ylmethyl)-acetamide] are 2.8 nM and 64 nM.
The matching figures for `Cn1cc(-c2nc(C3(c4ccc(-c5cnc(N)nc5)cc4)CC(F)(F)C3)no2)cn1` [Example 122, 5-(4-{3,3-Difluoro-1-[5-(1-methyl-1H-pyrazol-4-yl)-1,2,4-oxadiazol-3-yl]-cyclobutyl}-phenyl)-pyrimidin-2-ylamine]: 14 nM and 360 nM.
For the molecule `Nc1ncc(-c2ccc(C3(c4noc(Cc5ccccc5)n4)CCOCC3)cc2)cn1` [Example 150, 5-{4-[4-(5-Benzyl-1,2,4-oxadiazol-3-yl)-tetrahydro-pyran-4-yl]-phenyl}-pyrimidin-2-ylamine], the figures for the IC50 in experiment [1] and in experiment [2] were 180 nM and greater than 5000 nM, respectively.
The matching figures for `Nc1ncc(-c2ccc(C3(c4noc(-c5cccc(Cl)c5)n4)CCC3)cc2)cn1` [Example 45, 5-(4-{1-[5-(3-Chloro-phenyl)-1,2,4-oxadiazol-3-yl]-cyclobutyl}-phenyl)-pyrimidin-2-ylamine]: 7.9 nM and 950 nM.
The matching figures for `Cn1cc(-c2nc(C3(c4ccc(-c5cnc(N)c(C#N)c5)cc4)CCC3)no2)cn1` [Example 261, 2-Amino-5-(4-{1-[5-(1-methyl-1H-pyrazol-4-yl)-[1,2,4]oxadiazol-3-yl]-cyclobutyl}-phenyl)-nicotinonitrile]: 9.3 nM and 240 nM.
The matching figures for `Nc1ncc(-c2ccc(C3(c4noc(N5CC[C@@H](O)C5)n4)CCC3)cc2)cn1` [Example 290, (R)-1-(3-{1-[4-(2-Amino-pyrimidin-5-yl)-phenyl]-cyclobutyl}-[1,2,4]oxadiazol-5-yl)-pyrrolidin-3-ol]: 35 nM and 230 nM.
